Data: PubChem BioAssay AID1259407 (Chemical Carcinogenesis Research Information System (CCRIS), 2018)
Calls of active or inactive are those of the source. No rule for the calls is given here.

Test system: CCRIS mutagenicity, Ames/micronucleus/aberration tests
Assay: CCRIS mutagenicity studies
Conditions: Test System: AMES SALMONELLA TYPHIMURIUM

## CC1(C)COC1=O
Strain/Indicator: TA98, Metabolic Activation: HAMSTER, LIVER, S-9, AROCLOR 1254, Method: PREINCUBATION
  mutagenic call: inactive; negative
Strain/Indicator: TA98, Metabolic Activation: HAMSTER, LIVER, S-9, AROCLOR 1254, Method: STANDARD PLATE
  mutagenic call: inactive; negative
Strain/Indicator: TA98, Metabolic Activation: HAMSTER, LIVER, S-9, Method: PREINCUBATION
  mutagenic call: inactive; negative
Strain/Indicator: TA98, Metabolic Activation: HAMSTER, LIVER, S-9, Method: STANDARD PLATE
  mutagenic call: inactive; negative
Strain/Indicator: TA98, Metabolic Activation: MOUSE, LIVER, S-9, AROCLOR 1254, Method: PREINCUBATION
  mutagenic call: inactive; negative
Strain/Indicator: TA98, Metabolic Activation: MOUSE, LIVER, S-9, AROCLOR 1254, Method: STANDARD PLATE
  mutagenic call: inactive; negative
Strain/Indicator: TA98, Metabolic Activation: MOUSE, LIVER, S-9, Method: PREINCUBATION
  mutagenic call: inactive; negative
Strain/Indicator: TA98, Metabolic Activation: MOUSE, LIVER, S-9, Method: STANDARD PLATE
  mutagenic call: inactive; negative
Strain/Indicator: TA98, Metabolic Activation: NONE, Method: PREINCUBATION
  mutagenic call: inactive; negative
Strain/Indicator: TA98, Metabolic Activation: NONE, Method: STANDARD PLATE
  mutagenic call: inactive; negative
Strain/Indicator: TA98, Metabolic Activation: RAT, LIVER, S-9, AROCLOR 1254, Method: PREINCUBATION
  mutagenic call: inactive; negative
Strain/Indicator: TA98, Metabolic Activation: RAT, LIVER, S-9, AROCLOR 1254, Method: STANDARD PLATE
  mutagenic call: inactive; negative
Strain/Indicator: TA98, Metabolic Activation: RAT, LIVER, S-9, Method: PREINCUBATION
  mutagenic call: inactive; negative
Strain/Indicator: TA98, Metabolic Activation: RAT, LIVER, S-9, Method: STANDARD PLATE
  mutagenic call: inactive; negative
Strain/Indicator: TA100, Metabolic Activation: HAMSTER, LIVER, S-9, AROCLOR 1254, Method: STANDARD PLATE
  mutagenic call: active; positive
Strain/Indicator: TA100, Metabolic Activation: HAMSTER, LIVER, S-9, Method: STANDARD PLATE
  mutagenic call: active; positive
Strain/Indicator: TA100, Metabolic Activation: MOUSE, LIVER, S-9, AROCLOR 1254, Method: STANDARD PLATE
  mutagenic call: active; positive
Strain/Indicator: TA100, Metabolic Activation: MOUSE, LIVER, S-9, Method: STANDARD PLATE
  mutagenic call: active; positive
Strain/Indicator: TA100, Metabolic Activation: NONE, Method: STANDARD PLATE
  mutagenic call: active; positive
Strain/Indicator: TA100, Metabolic Activation: RAT, LIVER, S-9, AROCLOR 1254, Method: STANDARD PLATE
  mutagenic call: active; positive
Strain/Indicator: TA100, Metabolic Activation: RAT, LIVER, S-9, Method: STANDARD PLATE
  mutagenic call: active; positive
Strain/Indicator: TA1535, Metabolic Activation: HAMSTER, LIVER, S-9, AROCLOR 1254, Method: PREINCUBATION
  mutagenic call: inactive; negative
Strain/Indicator: TA1535, Metabolic Activation: HAMSTER, LIVER, S-9, Method: PREINCUBATION
  mutagenic call: inactive; negative
Strain/Indicator: TA1535, Metabolic Activation: MOUSE, LIVER, S-9, AROCLOR 1254, Method: PREINCUBATION
  mutagenic call: inactive; negative
Strain/Indicator: TA1535, Metabolic Activation: MOUSE, LIVER, S-9, Method: PREINCUBATION
  mutagenic call: inactive; negative
Strain/Indicator: TA1535, Metabolic Activation: NONE, Method: PREINCUBATION
  mutagenic call: inactive; negative
Strain/Indicator: TA1535, Metabolic Activation: RAT, LIVER, S-9, AROCLOR 1254, Method: PREINCUBATION
  mutagenic call: inactive; negative
Strain/Indicator: TA1535, Metabolic Activation: RAT, LIVER, S-9, Method: PREINCUBATION
  mutagenic call: inactive; negative
Strain/Indicator: TA1537, Metabolic Activation: HAMSTER, LIVER, S-9, AROCLOR 1254, Method: PREINCUBATION
  mutagenic call: inactive; negative
Strain/Indicator: TA1537, Metabolic Activation: HAMSTER, LIVER, S-9, AROCLOR 1254, Method: STANDARD PLATE
  mutagenic call: inactive; negative
Strain/Indicator: TA1537, Metabolic Activation: HAMSTER, LIVER, S-9, Method: PREINCUBATION
  mutagenic call: inactive; negative
